Tests used:
MDR1 (P-gp) = test: MDCK-MDR1 permeability assay, blood-brain-barrier penetration potential; conditions: dog, MDCK-MDR1, pH 7.4, MDCK-MDR1 Efflux Ratio
Experimental: (§1) Experimental Procedure: MDR1-MDCK cell monolayers are grown to confluence on collagen-coated, microporous membranes in 12-well assay plates. The permeability assay buffer is Hanks' balanced salt solution containing 10 mM HEPES and 15 mM glucose at a pH of 7.4. The buffer in the receiver chamber also contained 1% bovine serum albumin. The dosing solution concentration is 5 μM of test article in the assay buffer. Cell monolayers are dosed on the apical side (A-to-B) or basolateral side (B-to-A) and incubated at 37° C. with 5% CO2 in a humidified incubator. Samples are taken from the donor and receiver chambers at 120 minutes. Each determination is performed in duplicate. The flux of lucifer yellow is also measured post-experimentally for each monolayer to ensure no damage was inflicted to the cell monolayers during the flux period. All samples are assayed by LC-MS/MS using electrospray ionization.
(§2) Analytical Method: Liquid Chromatography • Column: Waters ACQUITY UPLC BEH Phenyl 30×2.1 mm, 1.7 μm • M.P. Buffer: 25 mM ammonium formate buffer, pH 3.5 • Aqueous Reservoir (A): 90% water, 10% buffer • Organic Reservoir (B): 90% acetonitrile, 10% buffer • Flow Rate: 0.7 mL/minute • Gradient Program:
(§3) • Total Run Time: 1.00 minute • Autosampler: 2 μL injection volume • Wash1: water/methanol/2-propanol:1/1/1; with 0.2% formic acid • Wash2: 0.1% formic acid in water • Brain Penetration • Potential Classification: A-B Papp≥3.0 and Efflux Ratio<3.0: High • A-B Papp≥3.0 and 10>Efflux Ratio≥3.0: Moderate • A-B Papp≥3.0 and Efflux Ratio≥10: Low • A-B Papp<3.0: Low

[1] = system: MDR1-MDCK cell monolayers; conditions: dog, MDCK-MDR1, 120 min, 5 μM, pH 7.4
Experimental: as §1, §2, §3

SMN protein = SMN protein assay (MSD) in SMA patient fibroblasts (GM03813); type: cell-based, human
Experimental: Compounds are tested on spinal muscular atrophy (SMA) patient fibroblasts (GM03813, Coriell) at doses ranging from 2.5 μM to 0.6 nM. 7000 cells/well are seeded in 96-well plates. Compounds are incubated for 48 hours and the cells were lysed with 100 μL of lysis buffer. 20 μL of lysate is used for SMN protein measurement by Mesoscale Discovery (MSD) assay developed by PharmOptima (Michigan). A standard curve prepared with SMN protein ranging from […] is used in each MSD plate to calculate the absolute SMN protein amount in each sample.

MDR1 = test: in vitro; conditions: dog; for Papp A→B at 120 min, 5 μM: MDCK-MDR1, pH 7.4, MDCK-MDR1: Papp A-B (10^−6, cm/s); for Papp B→A at 120 min, 5 μM: MDCK-MDR1, pH 7.4, MDCK-MDR1: Papp B-A (10^−6, cm/s)
Experimental: as §1, §2, §3

SMILES: CN(c1cnc(-c2ccc(-c3cnn(C)c3)cc2O)cn1)[C@@H]1[C@H](F)[C@H]2CCC(N2)[C@@H]1F (single isomer, unassigned) [Compound 4E2]
- efflux ratio at 120 min, 5 μM (MDR1 (P-gp)): 6
- MDCK-MDR1: % Recov A-B (%) [1]: 44%
- MDCK-MDR1: % Recov B-A (%) [1]: 63%
- EC50 (SMN protein): 16 to 50 nM
- Papp A→B at 120 min, 5 μM (MDR1): 4.94 ×10⁻⁶ cm/s
- Papp B→A at 120 min, 5 μM (MDR1): 27.9 ×10⁻⁶ cm/s

SMILES: CN(c1cnc(-c2cc(F)c(-c3cn[nH]c3)cc2O)cn1)[C@@H]1CC2CC(F)(F)[C@@H](C1)N2 (single isomer, unassigned) [Compound 65E1]
- efflux ratio at 120 min, 5 μM (MDR1 (P-gp)): 3
- MDCK-MDR1: % Recov A-B (%) [1]: 54%
- MDCK-MDR1: % Recov B-A (%) [1]: 71%
- EC50 (SMN protein): 101 to 500 nM
- Papp A→B at 120 min, 5 μM (MDR1): 20.9 ×10⁻⁶ cm/s
- Papp B→A at 120 min, 5 μM (MDR1): 54.5 ×10⁻⁶ cm/s

SMILES: COc1cc(-c2ccc(-c3cnc(N(C)[C@@H]4CC5CC[C@H](N5)[C@@H]4F)cn3)c(O)c2)ccn1 (single isomer, unassigned) [Compound 43E1]
- efflux ratio at 120 min, 5 μM (MDR1 (P-gp)): 1
- MDCK-MDR1: % Recov A-B (%) [1]: 18%
- MDCK-MDR1: % Recov B-A (%) [1]: 50%
- EC50 (SMN protein): 101 to 500 nM
- Papp A→B at 120 min, 5 μM (MDR1): 1.06 ×10⁻⁶ cm/s
- Papp B→A at 120 min, 5 μM (MDR1): 1.31 ×10⁻⁶ cm/s

SMILES: COc1cc(-c2ccc(-c3cnc(N(C)[C@H]4C[C@]5(C)CCC[C@@](C)(N5)[C@H]4F)cn3)c(O)c2)cnn1 [Compound 24E2, 2-(5-(((1R,2S,3S,5S)-2-fluoro-1,5-dimethyl-9-azabicyclo[3.3.1]nonan-3-yl)(methyl)amino)pyrazin-2-yl)-5-(6-methoxypyridazin-4-yl)phenol]
- efflux ratio at 120 min, 5 μM (MDR1 (P-gp)): 2
- MDCK-MDR1: % Recov A-B (%) [1]: 37%
- MDCK-MDR1: % Recov B-A (%) [1]: 44%
- EC50 (SMN protein): 501 to 10000 nM
- Papp A→B at 120 min, 5 μM (MDR1): 3.01 ×10⁻⁶ cm/s
- Papp B→A at 120 min, 5 μM (MDR1): 6.99 ×10⁻⁶ cm/s

SMILES: CN(c1cnc(-c2ccc(C3=CC(=O)NC3)cc2O)cn1)[C@@H]1CC2CC[C@H](N2)[C@@H]1F (single isomer, unassigned) [Compound 78E1]
- efflux ratio at 120 min, 5 μM (MDR1 (P-gp)): 53
- MDCK-MDR1: % Recov A-B (%) [1]: 81%
- MDCK-MDR1: % Recov B-A (%) [1]: 85%
- EC50 (SMN protein): 501 to 10000 nM
- Papp A→B at 120 min, 5 μM (MDR1): 0.77 ×10⁻⁶ cm/s
- Papp B→A at 120 min, 5 μM (MDR1): 41 ×10⁻⁶ cm/s

SMILES: CN(c1cnc(-c2ccc(-c3cn[nH]c3)cc2O)cn1)[C@@H]1CC2CC[C@H](N2)[C@H]1F (single isomer, unassigned) [Compound 27E1]
- efflux ratio at 120 min, 5 μM (MDR1 (P-gp)): 7
- MDCK-MDR1: % Recov A-B (%) [1]: 77%
- MDCK-MDR1: % Recov B-A (%) [1]: 79%
- EC50 (SMN protein): 501 to 10000 nM
- Papp A→B at 120 min, 5 μM (MDR1): 3.87 ×10⁻⁶ cm/s
- Papp B→A at 120 min, 5 μM (MDR1): 28.7 ×10⁻⁶ cm/s

SMILES: CN(c1cnc(-c2ccc(C3=CCOC3)cc2O)cn1)[C@@H]1CC2CC[C@H](N2)[C@@H]1F (single isomer, unassigned) [Compound 84E1]
- efflux ratio at 120 min, 5 μM (MDR1 (P-gp)): 3
- MDCK-MDR1: % Recov A-B (%) [1]: 26%
- MDCK-MDR1: % Recov B-A (%) [1]: 59%
- EC50 (SMN protein): 501 to 10000 nM
- Papp A→B at 120 min, 5 μM (MDR1): 3.01 ×10⁻⁶ cm/s
- Papp B→A at 120 min, 5 μM (MDR1): 7.82 ×10⁻⁶ cm/s

SMILES: COc1cc(-c2cc(O)c(-c3cnc(N(C)[C@@H]4CC5CC[C@H](N5)[C@@H]4F)cn3)cc2F)ccn1 (single isomer, unassigned) [Compound 30E1]
- efflux ratio at 120 min, 5 μM (MDR1 (P-gp)): 1
- MDCK-MDR1: % Recov A-B (%) [1]: 13%
- MDCK-MDR1: % Recov B-A (%) [1]: 49%
- EC50 (SMN protein): 501 to 10000 nM
- Papp A→B at 120 min, 5 μM (MDR1): 3.95 ×10⁻⁶ cm/s
- Papp B→A at 120 min, 5 μM (MDR1): 5.24 ×10⁻⁶ cm/s

SMILES: Cc1nc(-c2ccc(-c3cnc(N(C)[C@H]4C[C@@H]5CCC(N5)[C@H]4F)cn3)c(O)c2)no1 (single isomer, unassigned) [Compound 69E2]
- efflux ratio at 120 min, 5 μM (MDR1 (P-gp)): 2
- MDCK-MDR1: % Recov A-B (%) [1]: 47%
- MDCK-MDR1: % Recov B-A (%) [1]: 62%
- EC50 (SMN protein): 101 to 500 nM
- Papp A→B at 120 min, 5 μM (MDR1): 9.26 ×10⁻⁶ cm/s
- Papp B→A at 120 min, 5 μM (MDR1): 20.3 ×10⁻⁶ cm/s

SMILES: Cc1cc(-c2ccc(-c3cnc(N(C)[C@H]4C[C@@H]5CCC(N5)[C@H]4F)cn3)c(O)c2)cc(=O)[nH]1 (single isomer, unassigned) [Compound 77E2]
- efflux ratio at 120 min, 5 μM (MDR1 (P-gp)): 47
- MDCK-MDR1: % Recov A-B (%) [1]: 44%
- MDCK-MDR1: % Recov B-A (%) [1]: 50%
- EC50 (SMN protein): 501 to 10000 nM
- Papp A→B at 120 min, 5 μM (MDR1): 0.32 ×10⁻⁶ cm/s
- Papp B→A at 120 min, 5 μM (MDR1): 14.9 ×10⁻⁶ cm/s

SMILES: COc1cc(-c2ccc(-c3cnc(N(C4CC4)[C@H]4C[C@@H]5CCC(N5)[C@H]4F)cn3)c(O)c2)ccn1 (single isomer, unassigned) [Compound 51E2]
- efflux ratio at 120 min, 5 μM (MDR1 (P-gp)): 2
- MDCK-MDR1: % Recov A-B (%) [1]: 11%
- MDCK-MDR1: % Recov B-A (%) [1]: 34%
- EC50 (SMN protein): 501 to 10000 nM
- Papp A→B at 120 min, 5 μM (MDR1): 1.27 ×10⁻⁶ cm/s
- Papp B→A at 120 min, 5 μM (MDR1): 2.99 ×10⁻⁶ cm/s

SMILES: CN(c1cnc(-c2cc3ncn(CC(F)(F)F)c(=O)c3cc2O)cn1)[C@@H]1CC2CCC[C@H](N2)[C@@H]1F (single isomer, unassigned) [Compound 18E1]
- efflux ratio at 120 min, 5 μM (MDR1 (P-gp)): 71
- MDCK-MDR1: % Recov A-B (%) [1]: 78%
- MDCK-MDR1: % Recov B-A (%) [1]: 86%
- EC50 (SMN protein): 501 to 10000 nM
- Papp A→B at 120 min, 5 μM (MDR1): 0.92 ×10⁻⁶ cm/s
- Papp B→A at 120 min, 5 μM (MDR1): 65.1 ×10⁻⁶ cm/s

SMILES: COc1cc(-c2ccc(-c3cnc(N(C)[C@H]4C[C@@H]5CCC(N5)[C@H]4F)cn3)c(O)c2)cc(F)n1 (single isomer, unassigned) [Compound 44E2]
- efflux ratio at 120 min, 5 μM (MDR1 (P-gp)): 3
- MDCK-MDR1: % Recov A-B (%) [1]: 13%
- MDCK-MDR1: % Recov B-A (%) [1]: 52%
- EC50 (SMN protein): 101 to 500 nM
- Papp A→B at 120 min, 5 μM (MDR1): 3.33 ×10⁻⁶ cm/s
- Papp B→A at 120 min, 5 μM (MDR1): 9.1 ×10⁻⁶ cm/s

SMILES: CN(c1cnc(-c2ccc(-c3nnco3)cc2O)cn1)[C@H]1C[C@@H]2CCC(N2)[C@H]1F (single isomer, unassigned) [Compound 80E2]
- efflux ratio at 120 min, 5 μM (MDR1 (P-gp)): 4
- MDCK-MDR1: % Recov A-B (%) [1]: 73%
- MDCK-MDR1: % Recov B-A (%) [1]: 80%
- EC50 (SMN protein): 501 to 10000 nM
- Papp A→B at 120 min, 5 μM (MDR1): 8.23 ×10⁻⁶ cm/s
- Papp B→A at 120 min, 5 μM (MDR1): 30.8 ×10⁻⁶ cm/s

SMILES: Cn1cc(-c2cc(O)c(-c3cnc(N(C4CC4)[C@@H]4C[C@H]5CC[C@H](N5)[C@@H]4F)cn3)cc2F)cn1 [Compound 35E1, 2-(5-(cyclopropyl((1S,2S,3R,5R)-2-fluoro-8-azabicyclo[3.2.1]octan-3-yl)amino)pyrazin-2-yl)-4-fluoro-5-(1-methyl-1H-pyrazol-4-yl)phenol]
- efflux ratio at 120 min, 5 μM (MDR1 (P-gp)): 6
- MDCK-MDR1: % Recov A-B (%) [1]: 36%
- MDCK-MDR1: % Recov B-A (%) [1]: 62%
- EC50 (SMN protein): 501 to 10000 nM
- Papp A→B at 120 min, 5 μM (MDR1): 3 ×10⁻⁶ cm/s
- Papp B→A at 120 min, 5 μM (MDR1): 17.9 ×10⁻⁶ cm/s

SMILES: Oc1cc(-c2cn[nH]c2)ccc1-c1cnc(O[C@H]2CC3CC[C@@H](N3)[C@H]2F)cn1 (single isomer, unassigned) [Compound 1E1]
- efflux ratio at 120 min, 5 μM (MDR1 (P-gp)): 4
- MDCK-MDR1: % Recov A-B (%) [1]: 68%
- MDCK-MDR1: % Recov B-A (%) [1]: 82%
- EC50 (SMN protein): 501 to 10000 nM
- Papp A→B at 120 min, 5 μM (MDR1): 8.22 ×10⁻⁶ cm/s
- Papp B→A at 120 min, 5 μM (MDR1): 33.4 ×10⁻⁶ cm/s

SMILES: CN(c1cnc(-c2ccc(-c3cn[nH]c3)cc2O)cn1)[C@@H]1C[C@@]2(C)CC[C@H](N2)[C@@H]1F [Compound 28E4, 2-(5-(((1R,3R,4S,5S)-4-fluoro-1-methyl-8-azabicyclo[3.2.1]octan-3-yl)(methyl)amino)pyrazin-2-yl)-5-(1H-pyrazol-4-yl)phenol]
- efflux ratio at 120 min, 5 μM (MDR1 (P-gp)): 11
- MDCK-MDR1: % Recov A-B (%) [1]: 68%
- MDCK-MDR1: % Recov B-A (%) [1]: 84%
- EC50 (SMN protein): 501 to 10000 nM
- Papp A→B at 120 min, 5 μM (MDR1): 4.42 ×10⁻⁶ cm/s
- Papp B→A at 120 min, 5 μM (MDR1): 48.4 ×10⁻⁶ cm/s

SMILES: CN(c1cnc(-c2ccc(-c3cc(=O)n(C)cn3)cc2O)cn1)[C@H]1C[C@@H]2CCC(N2)[C@H]1F (single isomer, unassigned) [Compound 47E2]
- efflux ratio at 120 min, 5 μM (MDR1 (P-gp)): 15
- MDCK-MDR1: % Recov A-B (%) [1]: 84%
- MDCK-MDR1: % Recov B-A (%) [1]: 90%
- EC50 (SMN protein): 51 to 100 nM
- Papp A→B at 120 min, 5 μM (MDR1): 3.35 ×10⁻⁶ cm/s
- Papp B→A at 120 min, 5 μM (MDR1): 51.1 ×10⁻⁶ cm/s

SMILES: Oc1cc(-c2cn[nH]c2)ccc1-c1cnc(O[C@@H]2C[C@H]3CCC(N3)[C@@H]2F)cn1 (single isomer, unassigned) [Compound 1E2]
- efflux ratio at 120 min, 5 μM (MDR1 (P-gp)): 5
- MDCK-MDR1: % Recov A-B (%) [1]: 66%
- MDCK-MDR1: % Recov B-A (%) [1]: 79%
- EC50 (SMN protein): 501 to 10000 nM
- Papp A→B at 120 min, 5 μM (MDR1): 7.49 ×10⁻⁶ cm/s
- Papp B→A at 120 min, 5 μM (MDR1): 40.1 ×10⁻⁶ cm/s
